From patent US9115072B2, “Compounds and method for reducing uric acid” (WELLSTAT THERAPEUTICS CORPORATION, priority 2008, dated 2015)
Structures can show the parent of a compound that is named as a salt.

Biological target: T1, human URAT1 (Homo sapiens, UniProt Q96S37)
T1 construct: The full-length hURAT1 cDNA was obtained from the vector pCMV6-XL5 and subcloned into the expression vector pCMV6-Neo
T1 sequence (Q96S37 1-553): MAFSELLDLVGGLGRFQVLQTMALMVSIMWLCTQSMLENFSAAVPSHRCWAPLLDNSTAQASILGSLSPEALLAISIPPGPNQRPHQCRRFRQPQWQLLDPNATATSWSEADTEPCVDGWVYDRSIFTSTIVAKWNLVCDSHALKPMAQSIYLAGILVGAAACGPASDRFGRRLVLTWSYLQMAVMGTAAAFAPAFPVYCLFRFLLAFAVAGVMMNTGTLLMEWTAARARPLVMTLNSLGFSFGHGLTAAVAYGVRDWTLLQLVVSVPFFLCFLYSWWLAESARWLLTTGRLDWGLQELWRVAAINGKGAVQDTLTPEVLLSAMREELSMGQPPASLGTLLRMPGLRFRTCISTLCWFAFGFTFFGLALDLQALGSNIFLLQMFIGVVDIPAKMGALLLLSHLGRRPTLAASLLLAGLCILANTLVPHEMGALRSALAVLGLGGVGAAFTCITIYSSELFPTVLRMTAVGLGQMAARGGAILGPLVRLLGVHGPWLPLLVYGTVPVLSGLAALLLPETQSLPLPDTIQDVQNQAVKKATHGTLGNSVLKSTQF
Assay: URAT1 inhibition assay, [8-14C] urate uptake in hURAT1-HEK cells
Format: cell-based
Conditions: 50 μM [8-14C] urate; for inhibition at 10 µM: drug concentration typically 10 micromolar, read-out: % of Inhibition (uric acid uptake)
Experimental: A suitable assay involves transfection of cells (e.g. human embryonic kidney cells; “HEK”) with a vector encoding human URAT1, followed by determination of the ability of transfected cells to take up radiolabeled uric acid. The activity of compounds as URAT1 inhibitors is evaluated by their ability to block uric acid uptake by transfected cells.
Urate (50-60 mCi/mmol; American Radio Chemicals, Cat. No. ARC0513).
Plasmid vector pCMV6-XL5 containing hURAT1 cDNA (Cat. No. SC125624) and the expression vector pCMV6-Neo (Cat. No. pCMVNEO) were obtained from OriGene Technologies, Inc. The full-length hURAT1 cDNA was obtained from the vector pCMV6-XL5 and subcloned into the expression vector pCMV6-Neo to create the hURAT1 expression plasmid pCMV6-hURAT1. The sequences were verified by automatic DNA sequencing.
For transfection experiments, cells were plated on 60 mm dishes in 1 ml media per dish. […] Stable transfectants expressing hURAT1 (herein after referred as hURAT1-HEK cells) or cells having only the expression vector pCMV6-Neo (herein after referred as mock-HEK cells) were verified using reverse transcription polymerase chain reaction (RT-PCR) methods.
Before the uptake assay started, the culture medium was removed and the cells were incubated for 5 min in 0.6 ml of HBSS. After that HBSS was removed, the prepared reaction solutions were added into each well and incubated for 5 min at room temperature. Then the reaction solution was removed, cells were washed twice with 0.6 ml of cold HBSS and lysed with 0.2 ml of 0.1 M NaOH for 20 min. […] Test compounds were dissolved in DMSO and the same concentration of DMSO was added into the wells of mock-HEK cells and the hURAT1-HEK cells that didn't contain test compounds. For each test compound, the uptake assay was performed 2 times and carried out in triplicate. Urate uptake of the cells for each test condition was presented as the average percent inhibition in comparison to the DMSO control. The radioactivity values obtained for the wells that contained DMSO were taken as 100% uptake of the cells. The observed concentration-percent inhibition data were fitted to a sigmoidal concentration-effect model, where: IC50^Slope=[(100*Conc^Slope)/% Inhibition]−Conc^Slope
Additional drug concentrations were tested for determination of IC-50 values for some compounds (Table 6).

SMILES: Cc1cccc(Cl)c1COc1cccc(CC(=O)O)c1 [EG, 2-(3-(2-Chloro-6-methylbenzyloxy)phenyl)acetic acid]
- inhibition at 10 µM: 89.7%

SMILES: Cc1cccc(C)c1COc1cccc(C(C)C(=O)O)c1 (stereo not drawn) [EC, 2-(3-(2,6-Dimethylbenzyloxy)phenyl)propanoic acid]
- IC50: 330 nM

SMILES: O=C(O)Cc1cccc(OCc2c(F)cccc2F)c1 [DR, 2-(3-(2,6-Difluorobenzyloxy)phenyl)acetic acid]
- inhibition at 10 µM: 68.3%

SMILES: CN(CCOc1ccc(C(=O)CCC(=O)O)cc1)Cc1ccccc1F [AM, 4-(4-(2-((2-Fluorobenzyl)(methyl)amino)ethoxy)phenyl)-4-oxobutanoic acid hydrochloride]
- inhibition at 10 µM: 0%

SMILES: COc1cc(C(=O)CCC(=O)O)ccc1OCc1c(C)cccc1C [BT, 4-(4-(2,6-Dimethylbenzyloxy)-3-methoxyphenyl)-4-oxobutanoic acid]
- inhibition at 10 µM: 51.8%

SMILES: Cc1cccc(C)c1COc1cccc(CC(=O)O)c1 [CF, 3-(2,6-Dimethylbenzyloxy)phenylacetic acid]
- IC50: 530 nM
- inhibition at 10 µM: 96.5%

SMILES: Cc1cccc(C)c1COc1ccc(CC(=O)O)cc1 [DO, 2-(4-(2,6-Dimethylbenzyloxy)phenyl)acetic acid]
- inhibition at 10 µM: 80.3%

SMILES: O=C(O)CCC(=O)c1cccc(OCc2c(F)cccc2F)c1 [AW, 4-(3-(2,6-Difluorobenzyloxy)phenyl)-4-oxobutanoic acid]
- inhibition at 10 µM: 61.9%

SMILES: Cc1cccc(C)c1COc1cccc(C(C)C(=O)O)c1 (stereo not drawn) [DT, 2-(3-(2,6-Dimethylbenzyloxy)phenyl)propanoic acid]
- inhibition at 10 µM: 89.1%

SMILES: O=C(O)CCC(=O)c1ccc(OCc2c(F)cccc2F)cc1 [AH, 4-(4-(2,6-Difluorobenzyloxy)phenyl)-4-oxobutanoic acid]
- inhibition at 10 µM: 26.8%

SMILES: COC(=O)CC(=O)c1cccc(OCc2c(C)cccc2C)c1 [EB, Methyl 3-(3-(2,6-dimethylbenzyloxy)phenyl)-3-oxopropanoate]
- inhibition at 10 µM: 21.6%

SMILES: Cc1cccc(C)c1C(=O)Oc1cccc(C(=O)CCC(=O)O)c1 [DP, 4-(3-(2,6-Dimethylbenzoyloxy)phenyl)-4-oxobutanoic acid]
- inhibition at 10 µM: 60.5%

SMILES: COc1ccccc1COc1ccc(C(=O)CCC(=O)O)cc1 [AB, 4-(4-(2-Methoxybenzyloxy)phenyl)-4-oxobutanoic acid]
- inhibition at 10 µM: 3.7%

SMILES: Cc1ccc(COc2cccc(CC(=O)O)c2)c(C)c1 [DX, 2-(3-(2,4-Dimethylbenzyloxy)phenyl)acetic acid]
- inhibition at 10 µM: 64%

SMILES: COc1cccc(OC)c1COc1cccc(CC(=O)O)c1 [DY, 2-(3-(2,6-Dimethoxylbenzyloxy)phenyl)acetic acid]
- IC50: 1880 nM
- inhibition at 10 µM: 85.2%

SMILES: O=C(O)CCC(=O)c1ccc(OCc2ccccc2Cl)cc1 [AI, 4-(4-(2-Chlorobenzyloxy)phenyl)-4-oxobutanoic acid]
- inhibition at 10 µM: 2.3%

SMILES: Cc1cc(C)cc(COc2cccc(CC(=O)O)c2)c1 [DW, 2-(3-(3,5-Dimethylbenzyloxy)phenyl)acetic acid]
- inhibition at 10 µM: 54%

SMILES: COc1ccc(CC(=O)O)cc1OCc1c(C)cccc1C [DQ, 2-(3-(2,6-Dimethylbenzyloxy)-4-methoxyphenyl)acetic acid]
- IC50: 180 nM
- inhibition at 10 µM: 99.4%

SMILES: Cc1cccc(C)c1COc1cccc(C(=O)CC(C)(C)C(=O)O)c1 [BP, 4-(3-(2,6-Dimethylbenzyloxy)phenyl)-2,2-dimethyl-4-oxobutanoic acid]
- IC50: 4390 nM
- inhibition at 10 µM: 76.5%

SMILES: Cc1cccc(C)c1COc1cccc([C@H](O)CCC(=O)O)c1 [CR, 4-(3-(2,6-Dimethylbenzyloxy)-phenyl)-4(R)-hydroxybutanoic acid]
- inhibition at 10 µM: 60.6%

SMILES: Cc1cccc(C)c1COc1cccc(CCCCC(=O)O)c1 [CK, 5-(3-(2,6-Dimethylbenzyloxy)phenyl)pentanoic acid]
- IC50: 2690 nM
- inhibition at 10 µM: 88%

SMILES: Cc1cccc(C)c1COc1cccc(CCCC(=O)O)c1 [BS, 4-(3-(2,6-Dimethylbenzyloxy)phenyl)butanoic acid]
- inhibition at 10 µM: 28.6%
